The source of these data is ChEMBL document CHEMBL4020831, “Discovery of GDC-0853: A Potent, Selective, and Noncovalent Bruton's Tyrosine Kinase Inhibitor in Early Clinical Development” (J Med Chem, 2018).

Converted amounts (≈) assume the structure as drawn.

For one series, the target named is T1, TEC (Homo sapiens, UniProt P42680).
T1 sequence (P42680 whole entry): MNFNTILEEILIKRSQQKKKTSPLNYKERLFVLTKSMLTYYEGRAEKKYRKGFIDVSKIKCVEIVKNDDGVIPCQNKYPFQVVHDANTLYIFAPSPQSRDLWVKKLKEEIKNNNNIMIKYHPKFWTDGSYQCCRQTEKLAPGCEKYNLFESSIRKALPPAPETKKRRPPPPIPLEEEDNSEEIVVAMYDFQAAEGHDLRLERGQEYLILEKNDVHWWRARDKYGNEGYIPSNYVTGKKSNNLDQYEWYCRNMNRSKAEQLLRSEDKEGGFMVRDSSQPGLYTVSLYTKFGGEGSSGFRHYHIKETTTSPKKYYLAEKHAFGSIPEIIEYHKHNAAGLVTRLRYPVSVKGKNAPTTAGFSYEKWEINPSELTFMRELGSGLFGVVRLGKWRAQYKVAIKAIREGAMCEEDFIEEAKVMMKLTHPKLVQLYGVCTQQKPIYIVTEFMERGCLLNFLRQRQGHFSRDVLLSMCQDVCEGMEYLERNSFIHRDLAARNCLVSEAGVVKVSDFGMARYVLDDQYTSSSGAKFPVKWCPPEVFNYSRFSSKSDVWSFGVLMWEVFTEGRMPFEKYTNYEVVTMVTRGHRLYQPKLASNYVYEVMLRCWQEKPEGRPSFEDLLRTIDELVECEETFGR
The experiment in a line: Inhibition of recombinant human cytoplasmic full length His-tagged TEC expressed in baculovirus at 1 uM by Z'-LYTE assay.

In a further series the target is ERBB4 (Homo sapiens, UniProt Q15303). The series can be described thus: Inhibition of recombinant human cytoplasmic GST-tagged ERBB4 expressed in baculovirus at 1 uM by Z'-LYTE assay.
Sequence of ERBB4 (Q15303 whole entry): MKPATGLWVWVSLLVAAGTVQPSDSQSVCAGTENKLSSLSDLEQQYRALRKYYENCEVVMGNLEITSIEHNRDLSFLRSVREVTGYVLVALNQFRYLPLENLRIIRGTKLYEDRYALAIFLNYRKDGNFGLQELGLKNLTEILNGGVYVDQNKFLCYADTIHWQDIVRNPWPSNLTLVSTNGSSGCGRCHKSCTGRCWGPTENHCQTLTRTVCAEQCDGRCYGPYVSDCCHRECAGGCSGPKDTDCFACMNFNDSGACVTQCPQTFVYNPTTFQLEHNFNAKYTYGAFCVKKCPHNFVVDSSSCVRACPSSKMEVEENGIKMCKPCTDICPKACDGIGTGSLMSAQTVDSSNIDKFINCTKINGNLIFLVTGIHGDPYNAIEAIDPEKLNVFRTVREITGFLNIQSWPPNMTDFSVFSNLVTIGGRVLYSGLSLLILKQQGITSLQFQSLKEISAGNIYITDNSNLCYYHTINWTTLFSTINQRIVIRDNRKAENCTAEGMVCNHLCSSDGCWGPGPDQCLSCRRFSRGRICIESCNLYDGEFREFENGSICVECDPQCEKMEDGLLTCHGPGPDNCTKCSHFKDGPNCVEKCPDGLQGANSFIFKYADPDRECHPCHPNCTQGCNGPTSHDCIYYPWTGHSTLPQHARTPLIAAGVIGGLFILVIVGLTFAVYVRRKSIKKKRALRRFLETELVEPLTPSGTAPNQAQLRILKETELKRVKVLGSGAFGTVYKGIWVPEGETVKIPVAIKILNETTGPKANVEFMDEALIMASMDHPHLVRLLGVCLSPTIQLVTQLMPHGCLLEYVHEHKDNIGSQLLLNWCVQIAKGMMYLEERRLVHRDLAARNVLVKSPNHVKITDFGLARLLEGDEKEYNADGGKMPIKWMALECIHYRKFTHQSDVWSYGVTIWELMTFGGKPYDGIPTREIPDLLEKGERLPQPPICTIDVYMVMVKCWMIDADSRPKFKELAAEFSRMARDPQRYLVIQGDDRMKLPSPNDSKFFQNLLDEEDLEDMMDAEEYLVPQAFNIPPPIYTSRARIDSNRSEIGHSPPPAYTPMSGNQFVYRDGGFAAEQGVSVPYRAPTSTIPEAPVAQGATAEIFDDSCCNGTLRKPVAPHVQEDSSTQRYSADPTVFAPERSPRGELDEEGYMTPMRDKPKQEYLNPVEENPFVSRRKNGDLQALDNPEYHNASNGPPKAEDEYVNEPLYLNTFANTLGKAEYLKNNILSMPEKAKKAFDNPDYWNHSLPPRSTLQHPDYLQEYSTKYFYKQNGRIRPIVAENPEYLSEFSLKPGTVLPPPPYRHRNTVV
For a further series, the target named is T2, TXK (Homo sapiens, UniProt P42681).
T2 sequence (P42681 whole entry): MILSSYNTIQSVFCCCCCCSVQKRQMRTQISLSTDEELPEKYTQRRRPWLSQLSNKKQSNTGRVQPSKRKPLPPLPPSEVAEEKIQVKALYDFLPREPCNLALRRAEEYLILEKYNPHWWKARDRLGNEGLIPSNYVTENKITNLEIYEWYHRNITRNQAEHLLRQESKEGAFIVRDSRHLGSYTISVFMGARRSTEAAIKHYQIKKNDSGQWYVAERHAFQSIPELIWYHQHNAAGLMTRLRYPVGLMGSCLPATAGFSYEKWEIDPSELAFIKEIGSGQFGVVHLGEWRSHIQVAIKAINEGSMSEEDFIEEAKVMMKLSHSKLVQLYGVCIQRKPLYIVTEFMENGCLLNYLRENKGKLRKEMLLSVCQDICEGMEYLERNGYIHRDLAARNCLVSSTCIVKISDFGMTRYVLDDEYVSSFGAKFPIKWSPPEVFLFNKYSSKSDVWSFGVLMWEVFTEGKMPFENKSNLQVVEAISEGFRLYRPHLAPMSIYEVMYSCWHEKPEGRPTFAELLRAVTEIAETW
The experiment in a line: Inhibition of human full length GST-tagged TXK expressed in baculovirus at 1 uM by Z'-LYTE assay.

Another series has as its target T3, JAK3 (Homo sapiens, UniProt P52333).
T3 sequence (P52333 whole entry): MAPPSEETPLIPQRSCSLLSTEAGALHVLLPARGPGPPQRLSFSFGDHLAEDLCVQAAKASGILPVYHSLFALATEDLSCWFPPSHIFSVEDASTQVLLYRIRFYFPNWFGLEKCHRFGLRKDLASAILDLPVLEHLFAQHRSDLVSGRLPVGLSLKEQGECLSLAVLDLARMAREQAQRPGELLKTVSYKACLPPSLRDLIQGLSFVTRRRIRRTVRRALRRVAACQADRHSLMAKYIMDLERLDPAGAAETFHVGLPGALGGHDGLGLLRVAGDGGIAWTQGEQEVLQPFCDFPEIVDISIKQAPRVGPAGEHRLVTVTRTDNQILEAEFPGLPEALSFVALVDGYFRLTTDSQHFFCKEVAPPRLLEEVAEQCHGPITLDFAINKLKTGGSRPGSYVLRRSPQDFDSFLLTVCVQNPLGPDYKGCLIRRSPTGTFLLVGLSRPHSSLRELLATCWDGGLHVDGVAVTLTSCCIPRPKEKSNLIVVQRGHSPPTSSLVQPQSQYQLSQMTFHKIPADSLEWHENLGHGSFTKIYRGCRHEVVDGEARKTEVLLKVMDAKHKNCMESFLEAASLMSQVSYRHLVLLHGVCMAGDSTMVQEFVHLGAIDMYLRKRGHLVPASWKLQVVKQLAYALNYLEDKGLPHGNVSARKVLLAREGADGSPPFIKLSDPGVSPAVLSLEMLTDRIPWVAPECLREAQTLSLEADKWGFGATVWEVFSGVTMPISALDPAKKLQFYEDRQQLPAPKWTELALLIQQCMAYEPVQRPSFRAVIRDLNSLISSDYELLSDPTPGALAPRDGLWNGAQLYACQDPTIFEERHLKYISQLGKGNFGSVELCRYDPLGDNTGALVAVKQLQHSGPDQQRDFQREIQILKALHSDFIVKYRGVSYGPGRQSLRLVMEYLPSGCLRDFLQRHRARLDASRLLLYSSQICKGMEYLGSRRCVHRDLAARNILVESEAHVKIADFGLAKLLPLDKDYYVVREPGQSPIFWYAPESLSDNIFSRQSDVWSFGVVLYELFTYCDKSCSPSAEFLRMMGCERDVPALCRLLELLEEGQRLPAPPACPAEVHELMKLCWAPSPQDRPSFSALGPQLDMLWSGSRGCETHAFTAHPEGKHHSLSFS
The experiment in a line: Inhibition of recombinant human catalytic GST-tagged JAK3 expressed in baculovirus at 1 uM by Z'-LYTE assay.

The target in the next series is ERBB2 (Homo sapiens, UniProt P04626). The experiment in a line: Inhibition of recombinant human cytoplasmic His-tagged ERBB2 expressed in baculovirus at 1 uM by Z'-LYTE assay.
The next series addresses BLK (Homo sapiens, UniProt P51451). The series can be described thus: Inhibition of recombinant human full length His-tagged BLK expressed in baculovirus at 1 uM by Z'-LYTE assay.
A further series has as its target EGFR (Homo sapiens, UniProt P00533). The experiment in a line: Inhibition of recombinant human cytoplasmic GST-tagged EGFR expressed in baculovirus at 1 uM by Z'-LYTE assay.
A further series addresses LTK (Homo sapiens, UniProt P29376). The experiment in a line: Inhibition of recombinant human cytoplasmic GST-tagged LTK expressed in baculovirus at 1 uM by Z'-LYTE assay.
Series [1] can be described thus: Clearance in human liver microsomes at 1 uM incubated up to 60 mins by LC-MS/MS method. It counts as ADME, microsome. A general note: Liver microsomes are vesicles of endoplasmic reticulum, rich in cytochrome P450 enzymes.
The next series in a line: physchem. As to conditions: buffer, pH 7.4.
The nature of series [2]: Kinetic solubility of the compound. It counts as physicochemical. As to conditions: read-out: Kinetic_solubility.
In another series the target is BMX (Homo sapiens, UniProt P51813). The series can be described thus: Inhibition of cytoplasmic recombinant human full length His-tagged BMX expressed in baculovirus at 1 uM by Z'-LYTE assay.
Series [3] deals with T4, Tyrosine-protein kinase BTK (Homo sapiens, UniProt Q06187).
T4 sequence (Q06187 whole entry): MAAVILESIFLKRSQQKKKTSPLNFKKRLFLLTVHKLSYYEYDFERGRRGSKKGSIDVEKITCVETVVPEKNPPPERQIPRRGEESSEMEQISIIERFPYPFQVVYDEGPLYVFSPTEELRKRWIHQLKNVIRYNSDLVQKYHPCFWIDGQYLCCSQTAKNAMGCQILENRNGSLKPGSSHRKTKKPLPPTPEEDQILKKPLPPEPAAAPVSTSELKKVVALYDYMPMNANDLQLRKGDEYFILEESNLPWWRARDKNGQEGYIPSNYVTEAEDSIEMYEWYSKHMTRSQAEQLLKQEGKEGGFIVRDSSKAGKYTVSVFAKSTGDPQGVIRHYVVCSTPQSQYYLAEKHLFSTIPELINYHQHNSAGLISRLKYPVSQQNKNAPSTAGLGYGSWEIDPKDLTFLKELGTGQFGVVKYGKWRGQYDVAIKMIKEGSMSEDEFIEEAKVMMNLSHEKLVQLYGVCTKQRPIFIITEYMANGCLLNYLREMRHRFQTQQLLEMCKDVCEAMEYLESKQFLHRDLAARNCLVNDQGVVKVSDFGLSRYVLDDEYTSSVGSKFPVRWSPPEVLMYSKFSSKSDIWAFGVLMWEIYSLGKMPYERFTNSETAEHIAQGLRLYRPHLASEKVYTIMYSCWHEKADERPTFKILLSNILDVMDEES
Description: Inhibition of BTK in human whole blood-derived CD19+ B cells assessed as suppression of anti-IgM stimulated-CD69 expression preincubated for 1 hr followed by IgM stimulation for 18 hrs by FACS analysis
The nature of series [4]: Permeability across apical to basolateral in MDCK1 cells. It counts as ADME, cell-based, Canis lupus familiaris. As to conditions: dog, MDCK; read-out: permeability.
Another series in a line: in vitro. As to conditions: dog, MDCK.
The target of series [5] is T4, Tyrosine-protein kinase BTK. The experiment in a line: Inhibition of human recombinant C-terminal polyhistidine tagged BTK (1 to 659 residues)-mediated synthetic peptide substrate phosphorylation expressed in baculovirus-infected insect cells.
Series [6] is described as follows: Clearance in human hepatocytes at 1 uM incubated up to 60 mins by LC-MS/MS method. Type of series: ADME, cell-based, Hepatocyte.
The target of series [7] is T4, Tyrosine-protein kinase BTK. The source holds these as a separate data set.
Description: Inhibition of BTK in human whole blood derived-basophils assessed as suppression of IgE mediated-FcepsilonR ligation-stimulated CD63 expression

Sequence of BLK (P51451 whole entry): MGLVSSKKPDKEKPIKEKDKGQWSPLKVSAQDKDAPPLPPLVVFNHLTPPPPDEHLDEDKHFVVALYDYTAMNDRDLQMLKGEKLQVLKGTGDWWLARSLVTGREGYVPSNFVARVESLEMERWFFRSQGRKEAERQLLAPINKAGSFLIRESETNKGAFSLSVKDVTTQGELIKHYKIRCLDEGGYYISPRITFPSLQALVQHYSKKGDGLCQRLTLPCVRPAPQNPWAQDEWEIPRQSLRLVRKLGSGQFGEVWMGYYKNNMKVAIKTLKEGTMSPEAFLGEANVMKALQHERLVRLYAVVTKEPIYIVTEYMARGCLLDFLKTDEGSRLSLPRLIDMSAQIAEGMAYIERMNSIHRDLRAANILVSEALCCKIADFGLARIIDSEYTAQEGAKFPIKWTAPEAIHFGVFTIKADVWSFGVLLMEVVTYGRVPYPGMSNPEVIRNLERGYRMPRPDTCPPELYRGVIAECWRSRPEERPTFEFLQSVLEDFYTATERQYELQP
Sequence of LTK (P29376 whole entry): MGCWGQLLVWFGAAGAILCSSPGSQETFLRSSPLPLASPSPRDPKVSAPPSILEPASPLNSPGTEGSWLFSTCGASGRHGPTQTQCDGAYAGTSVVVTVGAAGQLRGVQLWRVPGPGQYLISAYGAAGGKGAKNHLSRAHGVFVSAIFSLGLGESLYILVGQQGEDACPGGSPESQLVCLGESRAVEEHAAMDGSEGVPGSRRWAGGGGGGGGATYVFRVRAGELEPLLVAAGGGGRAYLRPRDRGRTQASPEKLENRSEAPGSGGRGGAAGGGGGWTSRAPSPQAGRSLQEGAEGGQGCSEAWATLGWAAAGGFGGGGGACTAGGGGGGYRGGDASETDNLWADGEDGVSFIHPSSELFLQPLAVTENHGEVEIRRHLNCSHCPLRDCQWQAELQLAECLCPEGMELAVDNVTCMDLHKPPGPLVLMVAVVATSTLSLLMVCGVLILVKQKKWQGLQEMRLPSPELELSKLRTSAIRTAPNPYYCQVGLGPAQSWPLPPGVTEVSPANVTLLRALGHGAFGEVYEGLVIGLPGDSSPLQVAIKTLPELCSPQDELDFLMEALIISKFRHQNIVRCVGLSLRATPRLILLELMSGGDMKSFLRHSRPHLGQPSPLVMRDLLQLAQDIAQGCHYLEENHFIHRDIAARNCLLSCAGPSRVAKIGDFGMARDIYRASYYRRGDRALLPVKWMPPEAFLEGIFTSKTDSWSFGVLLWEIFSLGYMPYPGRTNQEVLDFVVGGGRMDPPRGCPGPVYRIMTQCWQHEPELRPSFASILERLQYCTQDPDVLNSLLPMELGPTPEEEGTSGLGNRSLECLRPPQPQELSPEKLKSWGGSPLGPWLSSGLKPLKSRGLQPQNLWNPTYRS
Sequence of EGFR (P00533 whole entry): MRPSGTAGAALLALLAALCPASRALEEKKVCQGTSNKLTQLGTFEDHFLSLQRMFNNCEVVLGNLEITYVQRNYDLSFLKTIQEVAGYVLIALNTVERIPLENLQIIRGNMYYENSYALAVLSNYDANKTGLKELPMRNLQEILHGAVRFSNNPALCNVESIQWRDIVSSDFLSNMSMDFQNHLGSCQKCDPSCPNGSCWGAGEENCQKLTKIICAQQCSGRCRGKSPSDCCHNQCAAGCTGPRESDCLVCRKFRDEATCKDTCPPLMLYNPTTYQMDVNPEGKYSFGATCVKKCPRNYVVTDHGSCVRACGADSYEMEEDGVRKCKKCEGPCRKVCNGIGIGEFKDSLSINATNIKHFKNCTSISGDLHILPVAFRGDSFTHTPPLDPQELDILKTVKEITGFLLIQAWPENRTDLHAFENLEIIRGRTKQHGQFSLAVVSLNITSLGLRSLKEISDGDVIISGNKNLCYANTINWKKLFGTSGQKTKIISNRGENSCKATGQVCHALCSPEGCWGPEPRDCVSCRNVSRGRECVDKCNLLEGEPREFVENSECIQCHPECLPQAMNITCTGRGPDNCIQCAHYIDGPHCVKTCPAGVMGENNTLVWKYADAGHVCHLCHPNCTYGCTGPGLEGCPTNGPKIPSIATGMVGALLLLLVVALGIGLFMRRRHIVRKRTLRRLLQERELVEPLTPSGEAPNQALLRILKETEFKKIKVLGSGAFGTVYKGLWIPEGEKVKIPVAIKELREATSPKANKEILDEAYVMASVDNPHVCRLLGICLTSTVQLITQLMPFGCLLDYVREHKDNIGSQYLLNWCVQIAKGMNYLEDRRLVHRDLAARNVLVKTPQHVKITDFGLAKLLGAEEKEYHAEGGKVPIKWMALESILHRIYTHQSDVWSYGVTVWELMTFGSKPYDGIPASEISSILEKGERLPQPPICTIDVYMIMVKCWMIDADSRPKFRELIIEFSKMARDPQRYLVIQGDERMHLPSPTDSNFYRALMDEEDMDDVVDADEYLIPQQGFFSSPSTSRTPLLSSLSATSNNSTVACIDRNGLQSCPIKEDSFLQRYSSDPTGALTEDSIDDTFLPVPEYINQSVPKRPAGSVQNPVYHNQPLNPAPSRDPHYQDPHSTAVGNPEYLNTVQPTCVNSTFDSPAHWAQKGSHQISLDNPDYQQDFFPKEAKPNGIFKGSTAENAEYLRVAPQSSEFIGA
Description for in vitro: Efflux ratio of permeability in MDCK1 cells

Usually inhibition stands for the drop in the measured response relative to a control, in per cent. On to `CC#CC(=O)N1CCC[C@H]1c1nc(-c2ccc(C(=O)Nc3ccccn3)cc2)c2c(N)nccn12` [ACALABRUTINIB], for which the inhibition at 1 µM on TEC is 71%; on ERBB4, 93%; against TXK, 31%; on JAK3, -3%; at ERBB2 it was 36%; at BLK it was 16%. Moreover, the inhibition at 1 µM at EGFR was -1%; on LTK it was 2%.
Broadly, the logD is lipophilicity at a set pH, counting ionised and neutral species. A high value points to higher lipophilicity. As for `Cn1cc(-c2cc(F)cc(N3CCn4c(cc5c4CCCC5)C3=O)c2CO)cc(Nc2ccc(N3CCN(C4COC4)CC3)cn2)c1=O`, the CLhep predicted at 1 µM in [1] is 12.3 mL/min/kg. The same compound returned a pH-dependent lipophilicity (logD) in the series “physchem” of 3.1. The solubility kinetic in series [2] was 12 µM (≈ 7.85 µg/mL).
Take `C=CC(=O)Nc1cccc(Nc2nc(Nc3ccc(OCCOC)cc3)ncc2F)c1` [SPEBRUTINIB]: the inhibition at 1 µM is 92% at TEC; 76% on ERBB4; 95% on TXK; 89% on JAK3; 6% on ERBB2; 44% at BLK. Also, the inhibition at 1 µM at EGFR is 34%; at LTK, 19%; on BMX, 99%.
One may read the IC50 as the concentration needed to halve the response being measured. High values mean lower potency, low ones higher potency. The efflux ratio is the permeability from basolateral to apical divided by that in the opposite direction, in the common usage. A word on the Ki: it is the equilibrium dissociation constant of an inhibitor or competing ligand from its target. Turning to `CC[C@H]1CN(C2COC2)CCN1c1ccc(Nc2cc(-c3ccnc(N4CCn5c(cc6c5CC(C)(C)C6)C4=O)c3CO)cn(C)c2=O)nc1`, the CLhep predicted at 1 µM in [1] was 12 mL/min/kg; in series [6], 16 mL/min/kg. For the same compound, the IC50 in [3] turned out to be 15.9 nM. The Papp A→B in series [4] was 9.5 ×10⁻⁶ cm/s. In addition, in the series “in vitro”, the efflux ratio turned out to be 0.9. In addition, in series [5], the Ki came to 0.96 nM. In the series “physchem”, the logD was determined as 3.6.
In the case of `C[C@@H]1CN(C2COC2)CCN1c1ccc(Nc2cc(-c3ccnc(N4CCn5c(cc6c5CC(C)(C)C6)C4=O)c3CO)cn(C)c2=O)nc1`, the values for the CLhep predicted at 1 µM in series [1] and in [6] were 15 mL/min/kg and 14 mL/min/kg, respectively. Further, the Papp A→B in series [4] came to 7.8 ×10⁻⁶ cm/s. For the same compound, the logD in the series “physchem” is 2.8.
For the compound `C[C@H]1CN(C2COC2)CCN1c1ccc(Nc2cc(-c3ccnc(N4CCn5c(cc6c5CC(C)(C)C6)C4=O)c3CO)nn(C)c2=O)nc1`, the results for the CLhep predicted at 1 µM in series [1] and in [6] were 11 mL/min/kg and 13 mL/min/kg, respectively. This compound had an IC50 in [3] of 16.1 nM. Also, in series [4], the Papp A→B turned out to be 17.3 ×10⁻⁶ cm/s. Moreover, in the series “in vitro”, the efflux ratio was found to be 0.9. Further, the logD in the series “physchem” was 3.7.
As to `C=CC(=O)N1CCC(CNc2ncnc(N)c2-c2ccc(Oc3ccccc3)cc2)CC1` [EVOBRUTINIB], the inhibition at 1 µM at TEC came out at 80%; at ERBB4, 57%; against TXK, 30%; on JAK3, 0%; at ERBB2 it was 1%; at BLK, 42%. Besides, the inhibition at 1 µM at EGFR is 1%; on LTK it was -2%.
As to `C[C@H]1CN(C2COC2)CCN1c1cnc(Nc2cc(-c3ccnc(N4CCn5c(cc6c5CC(C)(C)C6)C4=O)c3CO)cn(C)c2=O)cn1`, the CLhep predicted at 1 µM in series [1] was 12 mL/min/kg; in [6], 10 mL/min/kg. Besides, the IC50 in series [3] stood at 51.5 nM. Moreover, in series [4], the Papp A→B was determined as 15.6 ×10⁻⁶ cm/s. In the series “in vitro”, the efflux ratio stood at 1.2. In addition, the inhibition constant (Ki) in series [5] came out at 0.8 nM.
For the compound `Cc1c(-c2c(F)cc(C(N)=O)c3[nH]c4c(c23)CC[C@@H](C(C)(C)O)C4)cccc1-n1c(=O)c2cccc(F)c2n(C)c1=O`, the IC50 in series [3] is 88.3 nM; in series [7], 374 nM. Also, the inhibition at 1 µM at TEC was 98%; on ERBB4, 38%; against TXK, 81%; on JAK3, -2%; on ERBB2 it was 1%; at BLK it was 82%. In addition, the values for the inhibition at 1 µM on EGFR, on LTK and on BMX were 7%, 47% and 80%, respectively.
Take `CC#CC(=O)N1CC[C@@H](n2c(=O)n(-c3ccc(Oc4ccccc4)cc3)c3c(N)ncnc32)C1` [TIRABRUTINIB]: the inhibition at 1 µM at TEC was 86%; on ERBB4, 28%; against TXK, 66%; on JAK3, -7%; on ERBB2, 7%; at BLK, 47%. Moreover, the inhibition at 1 µM on EGFR was -2%; on LTK, -5%.
`C[C@@H]1CN(c2ccc(Nc3cc(-c4ccnc(N5CCn6c(cc7c6CC(C)(C)C7)C5=O)c4CO)cn(C)c3=O)nc2)[C@@H](C)CN1C1COC1`: the CLhep predicted at 1 µM in series [1] and in [6] was 12 mL/min/kg throughout. Half-maximal inhibition in [3] (IC50) required 10.2 nM. Further, the Papp A→B in [4] was 7.2 ×10⁻⁶ cm/s. In addition, in “in vitro”, the efflux ratio is 0.9. The Ki in series [5] was determined as 1.3 nM. Also, the logD in the series “physchem” turned out to be 3.5.
Regarding `C=CC(=O)N1CCC[C@@H](n2nc(-c3ccc(Oc4ccccc4)cc3)c3c(N)ncnc32)C1` [IBRUTINIB], the inhibition at 1 µM worked out at 100% on TEC; 93% at ERBB4; 93% against TXK; 80% at JAK3; 91% on ERBB2; 102% on BLK. On LTK, the inhibition at 1 µM is 81%.
